Source: patent US20240366634A1, “METHODS FOR THE TREATMENT OF CB1-, TRPA1- AND TRPV1-DEPENDENT CONDITIONS” (BUZZELET DEVELOPMENT AND TECHNOLOGIES LTD., priority 2021, published 2024)

Columns and labels:
Type in all cases: cell-based
hTRPA1 = target: T1, hTRPA1 (Homo sapiens, UniProt O75762); experiment: Live-cell calcium imaging (Fura-2) of TRPA1 activation in TREx 293 cells
T1 construct: expressed in transfected cells; host or cells: TREx 293 cells, pcDNA4/TO vector, doxycycline-induced
Method: rTRPV1 or hTRPA1 were stably expressed in TREx 293 cells following the manufacturer's protocol (Invitrogen, MA, USA). Briefly, TREx host cell line (Invitrogen, MA, USA) was transfected with pcDNA4/TO containing the gene of interest using Mirus LT1 transfection reagent (Mirus Bio, WI, USA) with Opti-MEM I Reduced Serum Medium (Invitrogen, MA, USA). Successful recombination and maintenance were confirmed through zeocin (500 μg/ml; Invivogen, Toulouse, France) selection to establish a stably-transfected cell line. Cells were grown in DMEM (Sigma-Aldrich, MO, USA) supplemented with 10% FBS, 1% penicillin-streptomycin, 2 mM L-alanine L-glutamine, and 25 mM HEPES (pH 7.3) supplemented with 5 μg/ml blasticidin at 37° C. and 5% CO2. Cells were passaged twice per week. Three hours before analysis, cells were treated with doxycycline (0.2-1 μg/ml) to induce transgene expression.
Flip-in TREX293T cells were spotted at PDL (0.2 mg/ml)-coated imaging chambers (μ-slide, 8-well; Ibidi, Martinsried, Germany) and incubated for 1.5-2 h in a humidified incubator at 37° C. and 5% CO2. Cells were loaded with 3 μg/ml Fura-2 AM (Thermo Fisher Scientific) dissolved in Ringer solution. The imaging chamber was placed onto the inverted microscope (IX70; Olympus, Tokyo, Japan). Cells were illuminated with a 175W xenon arc lamp, and excitation wavelengths (340/380 nm) were selected by a Lambda DG-4 monochromatic wavelength changer (Sutter Instrument, Novato, CA, USA). Intracellular Ca2+ concentration was measured by digital video microfluorometry illuminated interline CCD camera (Exi Blue; QImaging, Surrey, BC, Canada) using MetaFluor fluorescence ratio imaging software (Molecular Devices). Dual images (340 and 380 nm excitation, 510 nm emission) were collected, and pseudocolor ratio-metric images were monitored every 4 s during the experiment. Data analysis was performed with MetaFluor fluorescence ratio imaging software. Data are presented as a normalized intensity of baseline fluorescence. All experiments were carried out at room temperature.
Data for THC (leftmost column) and for THC with a 1/10 concentration of a terpene are presented. Response amplitudes are normalized to the maximal activation obtained by administration of Allyl Isothiocyanate (AITC). Numbers in parentheses represent p values for the comparison of the TRPA1 activation for THC and for THC plus a 1/10 concentration terpene.

GIRK channel = target: T2, GIRK channel (Homo sapiens, UniProt P48051+P48549); experiment: Receptor-independent effect on GIRK current in oocytes expressing the GIRK channel but not the CB1 receptor
T2 construct: expressed in transfected cells; host or cells: Xenopus laevis oocytes injected with cRNA
T2 sequence (P48549 1-501): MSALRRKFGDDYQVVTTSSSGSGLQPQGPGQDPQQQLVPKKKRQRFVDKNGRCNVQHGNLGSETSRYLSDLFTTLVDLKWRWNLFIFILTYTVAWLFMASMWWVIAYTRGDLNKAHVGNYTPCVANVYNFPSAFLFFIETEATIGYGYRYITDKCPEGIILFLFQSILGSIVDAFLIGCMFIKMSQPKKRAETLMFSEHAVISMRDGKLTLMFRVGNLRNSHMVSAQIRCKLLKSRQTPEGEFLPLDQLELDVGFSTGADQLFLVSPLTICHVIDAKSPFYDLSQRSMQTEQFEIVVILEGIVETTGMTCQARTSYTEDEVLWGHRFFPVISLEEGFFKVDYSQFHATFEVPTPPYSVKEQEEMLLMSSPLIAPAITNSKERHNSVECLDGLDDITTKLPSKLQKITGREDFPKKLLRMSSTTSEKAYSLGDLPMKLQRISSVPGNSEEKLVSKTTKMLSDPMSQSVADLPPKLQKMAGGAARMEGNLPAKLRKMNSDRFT
T2 sequence (P48051 1-423): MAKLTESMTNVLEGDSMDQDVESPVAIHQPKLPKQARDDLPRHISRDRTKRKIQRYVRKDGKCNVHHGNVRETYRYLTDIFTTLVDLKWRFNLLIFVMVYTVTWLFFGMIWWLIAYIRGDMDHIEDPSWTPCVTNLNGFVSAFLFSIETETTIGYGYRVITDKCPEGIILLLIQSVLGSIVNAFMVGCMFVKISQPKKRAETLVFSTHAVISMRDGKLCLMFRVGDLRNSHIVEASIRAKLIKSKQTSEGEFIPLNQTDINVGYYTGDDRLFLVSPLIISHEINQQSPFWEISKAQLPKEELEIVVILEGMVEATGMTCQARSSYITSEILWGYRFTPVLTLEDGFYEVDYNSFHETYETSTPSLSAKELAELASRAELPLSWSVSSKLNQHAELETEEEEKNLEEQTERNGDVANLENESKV
Method: To do so, the effect of THC and a panel of various terpenes was measured on oocytes expressing the GIRK channel but not the CB1 receptor.

CB1 receptor [1] = target: T3, CB1 receptor (Homo sapiens, UniProt P21554); experiment: CB1 receptor activation by THC in combination with terpenes, Xenopus oocyte GIRK current; conditions: terpene:THC weight/weight ratio 1:10; ratio of THC concentrations evoking 50% of maximal response with and without terpene
T3 construct: expressed in transfected cells; host or cells: Xenopus laevis oocytes injected with cRNA
T3 sequence (P21554 whole entry): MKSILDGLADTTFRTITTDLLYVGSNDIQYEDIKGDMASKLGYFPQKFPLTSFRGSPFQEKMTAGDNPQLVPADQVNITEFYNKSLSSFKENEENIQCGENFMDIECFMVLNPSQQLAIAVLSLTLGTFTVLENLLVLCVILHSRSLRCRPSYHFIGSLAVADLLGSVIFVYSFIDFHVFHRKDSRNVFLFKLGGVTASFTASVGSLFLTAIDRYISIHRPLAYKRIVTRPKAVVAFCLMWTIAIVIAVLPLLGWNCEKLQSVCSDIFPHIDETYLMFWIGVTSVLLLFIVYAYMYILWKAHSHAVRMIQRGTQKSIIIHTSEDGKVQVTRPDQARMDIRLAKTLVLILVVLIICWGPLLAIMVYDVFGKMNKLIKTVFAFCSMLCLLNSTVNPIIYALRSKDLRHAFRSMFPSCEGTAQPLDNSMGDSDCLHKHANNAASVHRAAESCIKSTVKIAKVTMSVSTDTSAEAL
Method: Xenopus oocytes were used as a functional expression system, as described in Example 1.
Terpenes were administered together with tetrahydrocannabinol (THC) at a terpene to THC weight/weight ratio in the range between 0.05:1 and 1:1.
Augmented activation was given as fold change. Fold change in potency is given as the ratio between the THC concentration required to evoke 50% of the maximal response in the presence of terpene and the THC concentration that evoked the same response in the absence of terpene.

CB1 receptor [2] = target: T3, CB1 receptor; experiment: CB1 receptor activation by terpenes, CB1-mediated GIRK currents in Xenopus oocytes (two-electrode voltage clamp); conditions: 10 μM terpene alone; response amplitude normalized to response obtained with 10 μM THC; Xenopus oocytes expressing CB1, GIRK1/2, Gαi3
Method: To test the possibility that the presence of various terpenes affects the activation of the CB1 receptor, the Inventors used Xenopus oocytes as a functional expression system. To this end, Xenopus oocytes were injected with cRNAs of proteins involved in the pathway leading to activation of K+ currents by CB1 receptor via βγ subunits of the G-proteins: The CB1 receptor, the two subunits of the GIRK channel (GIRK1 and GIRK2), and the Gαi3 subunit.
cDNA plasmids of the two subunits (GIRK1 and GIRK2) of the G protein-coupled inwardly-rectifying potassium (GIRK) receptor, the CB1 receptor, and the α subunit of the G-protein (Gαi3) were linearized with the appropriate restriction enzymes. The linearized plasmids were transcribed in vitro using a standard procedure.
X. laevis oocytes were isolated and incubated in NDE96 solution composed of ND96 (in mM: 96 NaCl, 2 KCl, 1 CaCl2, 1 MgCl2, 5 Hepes, with pH adjusted to 7.5 with NaOH) with the addition of 2.5 mM Na+ pyruvate, 100 units/ml penicillin, and 100 μg/ml streptomycin. A day after their isolation, the oocytes were injected with the relevant cRNAs. cRNAs of CB1 receptor (2 ng) and GIRK1 and GIRK2 (200 pg each) were injected. In addition, cRNA of Gαi3 (1000 pg) was injected to decrease the basal GIRK current (IK) and to improve the relative activation by the agonist (17).
Currents were measured 3-5 days after cRNA injection and were recorded using the standard two-electrode voltage clamp technique (Axoclamp 2B amplifier, Axon Instruments, Foster City, CA). Each oocyte was placed in the recording bath containing ND96 solution and was impaled with two electrodes pulled from 1.5-mm Clark capillaries (CEI, Pangboure, England). Both electrodes were filled with 3M KCl solution and the electrodes resistances were between 1-5 MΩ). The CB1-mediated GIRK currents were measured in a 24 mM K+ solution (in mM: 72 NaCl, 24 KCl, 1 CaCl2, 1 MgCl2, 5 Hepes, with pH adjusted to 7.5 with KOH). pCLAMP10 software (Axon Instruments) was used for data acquisition and analysis.
Next, the dependence of the THC-induced K+ current (ITHC) on THC concentration (dose-response) was measured. The oocyte was voltage-clamped to-80 mV in a low K+ (2 mM K+) solution, ND96. Basal GIRK current (IK) was developed upon replacement of the ND96 by the 24 mM K+ solution. This current represents the basal activation of GIRK channel by endogenous βγ subunits present in the oocytes. Then, five concentrations of THC were applied sequentially, giving rise to ITHC. This current was terminated upon washout of THC. Employing this basic experimental protocol, a full dose-response curve was constructed. To be able to compare between oocytes, ITHC at any particular THC concentration was normalized to ITHC obtained at a 10 μM, defined as the reference response.
Next, the effect of terpenes on CB1 activation was assessed.
Response amplitudes were normalized to the response obtained with 10 μM THC.

[3] = 8 μM THC with a 1/10 concentration of the terpene
[4] = 30 μM THC with a 1/10 concentration of the terpene

T1 sequence (O75762 whole entry): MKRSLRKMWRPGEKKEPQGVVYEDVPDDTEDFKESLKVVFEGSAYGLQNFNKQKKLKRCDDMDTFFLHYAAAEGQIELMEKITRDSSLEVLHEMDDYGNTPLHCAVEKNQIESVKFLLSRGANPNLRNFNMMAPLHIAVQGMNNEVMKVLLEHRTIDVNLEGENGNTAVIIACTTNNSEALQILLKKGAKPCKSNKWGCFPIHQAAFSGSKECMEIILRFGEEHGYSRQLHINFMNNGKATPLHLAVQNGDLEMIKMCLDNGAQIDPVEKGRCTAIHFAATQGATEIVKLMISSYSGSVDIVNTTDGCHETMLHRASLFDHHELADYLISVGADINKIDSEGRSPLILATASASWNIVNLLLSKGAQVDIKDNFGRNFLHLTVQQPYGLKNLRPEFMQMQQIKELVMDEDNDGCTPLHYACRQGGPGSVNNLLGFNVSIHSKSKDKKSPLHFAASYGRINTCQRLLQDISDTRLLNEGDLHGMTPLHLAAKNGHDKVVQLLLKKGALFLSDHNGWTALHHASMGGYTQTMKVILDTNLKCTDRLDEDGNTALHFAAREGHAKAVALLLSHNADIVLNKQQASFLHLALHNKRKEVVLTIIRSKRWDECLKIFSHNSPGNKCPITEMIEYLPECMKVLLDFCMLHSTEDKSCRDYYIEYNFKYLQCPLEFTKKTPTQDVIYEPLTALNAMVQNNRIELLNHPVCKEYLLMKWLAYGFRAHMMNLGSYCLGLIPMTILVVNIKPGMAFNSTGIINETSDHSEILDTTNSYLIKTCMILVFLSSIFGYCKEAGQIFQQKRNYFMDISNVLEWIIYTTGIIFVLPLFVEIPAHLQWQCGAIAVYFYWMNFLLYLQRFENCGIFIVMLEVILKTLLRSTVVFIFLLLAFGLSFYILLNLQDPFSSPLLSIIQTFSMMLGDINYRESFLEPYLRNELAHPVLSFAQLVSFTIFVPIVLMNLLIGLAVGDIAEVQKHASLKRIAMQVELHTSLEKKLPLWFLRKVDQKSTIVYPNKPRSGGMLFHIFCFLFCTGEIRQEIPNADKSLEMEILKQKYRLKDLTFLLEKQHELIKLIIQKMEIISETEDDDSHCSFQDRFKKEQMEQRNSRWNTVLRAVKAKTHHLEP

Row | SMILES | Fold change of THC potency by terpene, at terpene:THC ratio of 1:10 (CB1 receptor [1]) | Response to 10 μM terpene (CB1 receptor [2]) | also measured
1 | CC1CCC(C(C)C)C(O)C1 (centres unmarked) [Menthol] | – | – | TRPA1 response amplitude normalized to maximal activation by AITC (hTRPA1; [3]): 0.44
2 | CCCCCc1cc(O)c2c(c1)OC(C)(C)[C@@H]1CCC(C)=C[C@@H]21 [THC, tetrahydrocannabinol, reference compound] | – | – | TRPA1 response amplitude normalized to maximal activation by AITC (hTRPA1; 8 μM THC alone): 0.35; TRPA1 response amplitude normalized to maximal activation by AITC (hTRPA1; 30 μM THC alone): 0.8; Effect on the GIRK current (GIRK channel): None of these compounds showed an effect on the GIRK current
3 | CC(C)=CCC/C(C)=C/CO [geraniol] | 1.576 | 0.31 ± 0.08 | –
4 | CC12CCC(CC1)C(C)(C)O2 [eucalyptol] | – | 0.41 ± 0.04 | TRPA1 response amplitude normalized to maximal activation by AITC (hTRPA1; [3]): 0.48; TRPA1 response amplitude normalized to maximal activation by AITC (hTRPA1; [4]): 0.93
5 | C=CC(C)(O)CCC=C(C)C (centres unmarked) [linalool] | 1.553 | – | TRPA1 response amplitude normalized to maximal activation by AITC (hTRPA1; [3]): 0.44; TRPA1 response amplitude normalized to maximal activation by AITC (hTRPA1; [4]): 0.93
6 | C=CC(C)=CCC=C(C)C [ocimene] | 2.639 | 0.36 ± 0.05 | –
7 | CC(C)=CCCC(C)=CC=O [Citral] | – | – | TRPA1 response amplitude normalized to maximal activation by AITC (hTRPA1; [4]): 0.96
8 | C=C1CCC2CC1C2(C)C (stereo not drawn) [β-pinene] | – | 0.29 ± 0.06 | –
9 | CC1=CCC2CC1C2(C)C (stereo not drawn) [α-pinene] | – | 0.29 ± 0.03 | –
10 | CC1(C)C2CCC1(C)C(O)C2 (centres unmarked) [borneol] | 4.469 | – | –
11 | C=CC(=C)CCC=C(C)C [myrcene] | – | 0.26 ± 0.07 | –
12 | C=C1CCC2(C(C)C)CC12 (centres unmarked) [sabinene] | 1.685 | – | –
13 | CC1=CCC(=C(C)C)CC1 [terpinolene] | – | 0.45 ± 0.02 | –
14 | C=C(C)[C@H]1CC=C(C)CC1 [limonene] | 3.369 | 0.23 ± 0.02 | –
